PMC5951806, “Rapid labelling and covalent inhibition of intracellular native proteins using ligand-directed N-acyl-N-alkyl sulfonamide” (Nature Communications, 2018)

How the values were obtained:
[1] = biological target: T1, Isoform 3 of Very long-chain specific acyl-CoA dehydrogenase, mitochondrial (ACADVL) (Homo sapiens, UniProt P49748); test: TMT LC-MSMS of 11-labelled proteins; assay type: cell-based
T1 sequence (P49748 64-678 isoform P49748-3): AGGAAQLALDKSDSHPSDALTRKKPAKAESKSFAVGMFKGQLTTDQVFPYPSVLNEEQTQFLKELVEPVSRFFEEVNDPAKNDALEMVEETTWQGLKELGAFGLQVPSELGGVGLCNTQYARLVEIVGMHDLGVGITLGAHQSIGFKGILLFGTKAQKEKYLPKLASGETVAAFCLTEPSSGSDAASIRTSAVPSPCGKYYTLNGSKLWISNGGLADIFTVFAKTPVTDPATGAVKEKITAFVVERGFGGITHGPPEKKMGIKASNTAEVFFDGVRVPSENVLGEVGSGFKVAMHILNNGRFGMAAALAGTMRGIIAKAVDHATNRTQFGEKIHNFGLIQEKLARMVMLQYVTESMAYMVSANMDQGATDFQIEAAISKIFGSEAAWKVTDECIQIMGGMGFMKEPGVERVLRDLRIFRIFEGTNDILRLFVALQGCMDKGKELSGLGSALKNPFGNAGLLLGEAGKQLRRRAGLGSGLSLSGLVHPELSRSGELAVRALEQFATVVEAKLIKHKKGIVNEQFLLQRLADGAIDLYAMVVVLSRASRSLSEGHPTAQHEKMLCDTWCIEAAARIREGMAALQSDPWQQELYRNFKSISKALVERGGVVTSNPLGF

[2] = biological target: T2, ADP/ATP translocase 3 (SLC25A6) (Homo sapiens, UniProt P12236); test: TMT LC-MSMS of 11-labelled proteins; assay type: cell-based
T2 sequence (P12236 1-298): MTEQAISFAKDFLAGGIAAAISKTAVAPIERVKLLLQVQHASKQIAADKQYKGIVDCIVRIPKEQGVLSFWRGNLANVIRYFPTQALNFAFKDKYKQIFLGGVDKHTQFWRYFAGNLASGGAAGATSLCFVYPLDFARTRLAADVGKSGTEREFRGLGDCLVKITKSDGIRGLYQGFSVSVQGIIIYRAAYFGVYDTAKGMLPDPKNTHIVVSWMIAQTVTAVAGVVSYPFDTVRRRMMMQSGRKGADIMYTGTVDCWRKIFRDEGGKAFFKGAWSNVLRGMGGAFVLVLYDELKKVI

[3] = sheet Exp1, SKBR3 cells, 11 0.5 µM 3 h vs DMSO
[4] = sheet Exp1, SKBR3 cells, 11 0.5 µM 3 h vs with PU-H71 10 µM
[5] = sheet Merged, SKBR3 cells, 11 0.5 µM 3 h vs DMSO
[6] = sheet Merged, SKBR3 cells, 11 0.5 µM 3 h vs with PU-H71 10 µM

- Abundance Ratio: (11) / (11 with PU-H71) ([1]; Exp3, ACADVL): 0.845
- Abundance Ratio: (11) / (DMSO) ([1]; Exp3, ACADVL): 5.056
- Abundances (Grouped): 11 ([1]; Exp3, ACADVL): 1747
- Abundances (Grouped): 11 with PU-H71 ([1]; Exp3, ACADVL): 2067.1
- Abundance Ratio: (11) / (DMSO) [1, 3]: 5.466
- Abundance Ratio: (11) / (11 with PU-H71) [1, 4]: 0.816
- Abundance Ratio: (11) / (11 with PU-H71) ([1]; sheet Exp2, ACADVL): 0.826
- Abundance Ratio: (11) / (DMSO) ([1]; sheet Exp2, ACADVL): 4.735
- Abundances (Grouped): 11 ([1]; sheet Exp2, ACADVL): 1334.4
- Abundances (Grouped): 11 with PU-H71 ([1]; sheet Exp2, ACADVL): 1615.2
- Abundance Ratio: (11) / (DMSO) [1, 5]: 4.735
- Abundance Ratio: (11) / (11 with PU-H71) [1, 6]: 0.826
- Abundance Ratio: (11) / (11 with PU-H71) ([2]; Exp3, SLC25A6): 0.576
- Abundance Ratio: (11) / (DMSO) ([2]; Exp3, SLC25A6): 5.78
- Abundances (Grouped): 11 ([2]; Exp3, SLC25A6): 626.5
- Abundances (Grouped): 11 with PU-H71 ([2]; Exp3, SLC25A6): 1087.4
- Abundance Ratio: (11) / (DMSO) [2, 3]: 5.287
- Abundance Ratio: (11) / (11 with PU-H71) [2, 4]: 0.613
- Abundance Ratio: (11) / (11 with PU-H71) ([2]; sheet Exp2, SLC25A6): 0.601
- Abundance Ratio: (11) / (DMSO) ([2]; sheet Exp2, SLC25A6): 6.595
- Abundances (Grouped): 11 ([2]; sheet Exp2, SLC25A6): 579
- Abundances (Grouped): 11 with PU-H71 ([2]; sheet Exp2, SLC25A6): 963.9
- Abundance Ratio: (11) / (DMSO) [2, 5]: 5.939
- Abundance Ratio: (11) / (11 with PU-H71) [2, 6]: 0.586
SMILES: CC(=O)Oc1ccc2c(c1)Oc1cc(OC(C)=O)ccc1C21OC(=O)c2cc(C(=O)NCCOCCOCCNC(=O)CCCC(=O)N(CC#N)S(=O)(=O)c3ccc(C(=O)NCCCn4c(Sc5cc6c(cc5I)OCO6)nc5c(N)ncnc54)cc3)ccc21 [compound 11]
